Counter-ions that a name gives are not always drawn.

From US20230190755A1, “Topical formulations of PI3K-delta inhibitors” (Incyte Corporation, priority 2021, published 2023) come the findings set out here.

For one data set, the target named is T1, PI3Kα (Homo sapiens, UniProt P42336).
T1 construct: purchased Millipore (Bedford, Mass.)
The data set is described as follows: PI3K enzyme assay of Example 7 ([γ-33P]ATP filter plate). Type of data set: biochemical. As for the experimental part: (§1) Materials: Lipid kinase substrate, phosphoinositol-4,5-bisphosphate (PIP2), are purchased from Echelon Biosciences (Salt Lake City, Utah). PI3K isoforms α, β, δ and γ are purchased from Millipore (Bedford, Mass.). ATP, MgCl2, DTT, EDTA, MOPS and CHAPS are purchased from Sigma-Aldrich (St. Louis, Mo.).
(§2) The kinase reaction are conducted in clear-bottom 96-well plate from Thermo Fisher Scientific in a final volume of 24 μL. Inhibitors are first diluted serially in DMSO and added to the plate wells before the addition of other reaction components. The final concentration of DMSO in the assay is 0.5%. The PI3K assays are carried out at room temperature in 20 mM MOPS, pH 6.7, 10 mM MgCl2, 5 mM DTT and CHAPS 0.03%. The reaction mixture is prepared containing 50 μM PIP2, kinase and varying concentration of inhibitors. Reactions are initiated by the addition of ATP containing 2.2 μCi [γ-^33P]ATP to a final concentration of 1000 μM. The final concentration of PI3K isoforms α, β, δ and γ in the assay were 1.3, 9.4, 2.9 and 10.8 nM, respectively. Reactions are incubated for 180 minutes and terminated by the addition of 100 μL of 1 M potassium phosphate pH 8.0, 30 mM EDTA quench buffer. A 100 μL aliquot of the reaction solution are then transferred to 96-well Millipore MultiScreen IP 0.45 μm PVDF filter plate (The filter plate is prewetted with 200 μL 100% ethanol, distilled water, and 1 M potassium phosphate pH 8.0, respectively). The filter plate is aspirated on a Millipore Manifold under vacuum and washed with 18×200 μL wash buffer containing 1 M potassium phosphate pH 8.0 and 1 mM ATP. After drying by aspiration and blotting, the plate is air dried in an incubator at 37° C. overnight. Packard TopCount adapter (Millipore) is then attached to the plate followed with addition of 120 μL Microscint 20 scintillation cocktail (Perkin Elmer) in each well. After the plate sealing, the radioactivity of the product is determined by scintillation counting on Topcount (Perkin-Elmer). IC50 determination is performed by fitting the curve of percent control activity versus the log of the inhibitor concentration using the GraphPad Prism 3.0 software.

For another data set, the target named is T2, PI3Kδ (Homo sapiens, UniProt O00329).
T2 construct: purchased Millipore (Bedford, Mass.)
T2 sequence (O00329 whole entry): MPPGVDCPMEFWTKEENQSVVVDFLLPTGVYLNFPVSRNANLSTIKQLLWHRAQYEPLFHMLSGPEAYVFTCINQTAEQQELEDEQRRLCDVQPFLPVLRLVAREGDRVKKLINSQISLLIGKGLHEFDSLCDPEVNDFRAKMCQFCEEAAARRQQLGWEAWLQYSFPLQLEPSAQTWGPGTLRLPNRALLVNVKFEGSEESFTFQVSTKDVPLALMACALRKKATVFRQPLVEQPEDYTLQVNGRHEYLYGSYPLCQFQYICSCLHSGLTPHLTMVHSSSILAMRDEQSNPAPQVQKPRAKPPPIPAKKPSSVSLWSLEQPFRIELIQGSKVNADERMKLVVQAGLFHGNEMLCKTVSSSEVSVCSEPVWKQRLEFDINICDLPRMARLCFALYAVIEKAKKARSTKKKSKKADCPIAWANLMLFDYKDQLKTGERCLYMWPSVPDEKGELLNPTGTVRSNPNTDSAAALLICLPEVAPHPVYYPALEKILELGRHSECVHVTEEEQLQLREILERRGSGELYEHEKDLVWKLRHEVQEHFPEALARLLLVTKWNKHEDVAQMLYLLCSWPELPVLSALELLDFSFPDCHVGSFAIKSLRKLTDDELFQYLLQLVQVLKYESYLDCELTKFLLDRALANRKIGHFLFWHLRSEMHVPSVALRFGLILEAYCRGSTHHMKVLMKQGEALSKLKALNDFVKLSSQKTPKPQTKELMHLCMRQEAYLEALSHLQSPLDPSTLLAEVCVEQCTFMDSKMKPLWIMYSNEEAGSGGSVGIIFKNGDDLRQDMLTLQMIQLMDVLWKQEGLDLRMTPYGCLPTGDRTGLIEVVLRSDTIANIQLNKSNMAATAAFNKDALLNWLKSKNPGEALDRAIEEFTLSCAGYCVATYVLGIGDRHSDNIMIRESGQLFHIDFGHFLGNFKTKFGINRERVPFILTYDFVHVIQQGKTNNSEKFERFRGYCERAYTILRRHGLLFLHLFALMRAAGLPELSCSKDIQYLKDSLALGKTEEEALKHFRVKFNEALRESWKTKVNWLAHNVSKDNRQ
T2 sequence (P27986 whole entry partner): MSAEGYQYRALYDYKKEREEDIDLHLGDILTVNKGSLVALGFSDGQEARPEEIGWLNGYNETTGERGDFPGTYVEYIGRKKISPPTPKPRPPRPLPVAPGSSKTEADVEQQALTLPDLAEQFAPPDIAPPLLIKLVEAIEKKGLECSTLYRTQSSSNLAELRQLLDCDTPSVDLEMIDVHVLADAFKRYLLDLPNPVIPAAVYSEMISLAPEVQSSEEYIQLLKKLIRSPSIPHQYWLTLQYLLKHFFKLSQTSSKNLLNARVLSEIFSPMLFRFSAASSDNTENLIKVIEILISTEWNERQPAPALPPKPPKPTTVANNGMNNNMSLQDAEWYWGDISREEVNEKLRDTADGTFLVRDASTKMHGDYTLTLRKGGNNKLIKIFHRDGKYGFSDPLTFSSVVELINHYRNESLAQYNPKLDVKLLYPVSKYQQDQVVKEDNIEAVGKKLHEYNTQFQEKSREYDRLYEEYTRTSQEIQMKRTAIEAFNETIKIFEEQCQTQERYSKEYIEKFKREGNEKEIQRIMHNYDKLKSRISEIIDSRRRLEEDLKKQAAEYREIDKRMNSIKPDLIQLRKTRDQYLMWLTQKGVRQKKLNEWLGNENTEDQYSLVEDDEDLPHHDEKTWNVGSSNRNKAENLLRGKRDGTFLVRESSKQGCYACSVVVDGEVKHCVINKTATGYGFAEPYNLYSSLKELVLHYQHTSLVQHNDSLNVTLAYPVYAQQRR
The description is as above. Type of data set: biochemical. As for the experimental part: as §1, §2

Another data set deals with T3, PI3Kβ (Homo sapiens, UniProt P42338).
T3 construct: purchased Millipore (Bedford, Mass.)
The data set is described as above. Type of data set: biochemical. The procedure:
as §1, §2

For another data set, the target named is T4, PI3Kγ (Homo sapiens, UniProt P48736).
T4 construct: purchased Millipore (Bedford, Mass.)
T4 sequence (P48736 whole entry): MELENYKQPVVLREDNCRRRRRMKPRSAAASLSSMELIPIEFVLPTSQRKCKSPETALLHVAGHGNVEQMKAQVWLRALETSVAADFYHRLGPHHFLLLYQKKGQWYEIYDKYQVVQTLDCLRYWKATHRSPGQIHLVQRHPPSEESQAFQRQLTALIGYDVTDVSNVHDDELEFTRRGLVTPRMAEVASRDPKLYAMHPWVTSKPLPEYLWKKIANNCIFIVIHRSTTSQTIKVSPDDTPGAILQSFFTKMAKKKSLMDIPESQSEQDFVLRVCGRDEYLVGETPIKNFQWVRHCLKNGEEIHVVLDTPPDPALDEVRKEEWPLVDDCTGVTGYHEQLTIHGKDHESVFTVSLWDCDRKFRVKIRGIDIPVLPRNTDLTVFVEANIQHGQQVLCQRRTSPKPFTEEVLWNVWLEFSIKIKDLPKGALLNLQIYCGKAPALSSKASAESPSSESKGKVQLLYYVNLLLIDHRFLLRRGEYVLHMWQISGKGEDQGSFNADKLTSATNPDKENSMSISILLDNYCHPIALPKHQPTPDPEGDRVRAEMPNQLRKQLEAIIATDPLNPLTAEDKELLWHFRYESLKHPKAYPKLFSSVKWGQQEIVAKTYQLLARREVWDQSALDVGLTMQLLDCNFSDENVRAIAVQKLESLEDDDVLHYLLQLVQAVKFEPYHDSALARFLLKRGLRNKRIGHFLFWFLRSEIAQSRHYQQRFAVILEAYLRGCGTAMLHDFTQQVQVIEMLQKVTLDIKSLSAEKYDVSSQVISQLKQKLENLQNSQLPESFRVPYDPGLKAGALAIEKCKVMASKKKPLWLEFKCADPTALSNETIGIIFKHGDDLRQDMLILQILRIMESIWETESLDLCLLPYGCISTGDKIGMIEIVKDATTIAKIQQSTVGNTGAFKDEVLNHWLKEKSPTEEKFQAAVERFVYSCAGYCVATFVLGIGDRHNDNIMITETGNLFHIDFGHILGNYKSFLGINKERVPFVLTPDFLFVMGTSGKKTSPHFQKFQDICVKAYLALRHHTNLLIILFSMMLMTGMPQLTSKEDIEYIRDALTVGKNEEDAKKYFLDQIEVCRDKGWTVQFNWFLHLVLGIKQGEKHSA
The description is as above. Type of data set: biochemical. As for the experimental part: as §1, §2

Data set [1] is described as follows: Free fraction by equilibrium dialysis, human plasma and homogenized human skin. The data set is classed as in vitro ADME. As for the experimental part: (§3) The concentration of Compound A was measured in the epidermis, dermis, and plasma 24 hours post application. Dermal concentrations in minipigs dosed with 1.0% w/w topical formulation were 8× higher compared with dermal concentrations in minipigs dosed with the 0.1% topical formulation. The epidermal concentration for 1.0% w/w topical formulation was 6× higher compared with the 0.1% w/w topical dose. The epidermal concentrations accounted for the combined drug levels in the stratum corneum and viable epidermis layers (i.e., skin samples were not tape stripped). Relatedly, the free fraction of Compound A in plasma and homogenized human skin was evaluated by equilibrium dialysis studies. The mean free fraction in human plasma and skin was […] respectively. In minipigs, the free fraction in plasma was measured at 3.1%.

The target in another data set is PI3Kδ (p110δ/p85α) (Homo sapiens, UniProt O00329). As to the kind of experiment: PI3Kδ scintillation proximity assay (Example 8). The data set is classed as biochemical. The settings on record: 20 μM ATP, 4 nM PI3Kδ. From the text: Lipid kinase substrate, D-myo-Phosphatidylinositol 4,5-bisphosphate (PtdIns(4,5)P2)D (+)-sn-1,2-di-O-octanoylglyceryl, 3-O-phospho linked (PIP2), CAS 204858-53-7, was purchased from Echelon Biosciences (Salt Lake City, Utah). PI3Kδ (p110δ/p85α) was purchased from Millipore (Bedford, Mass.). ATP, MgCl2, DTT, EDTA, MOPS and CHAPS were purchased from Sigma-Aldrich (St. Louis, Mo.). Wheat Germ Agglutinin (WGA) YSi SPA Scintillation Beads was purchased from GE healthcare life sciences (Piscataway, N.J.).
PI3Kδ (p110δ/p85α), sequence (O00329 whole entry): as the sequence (O00329 whole entry) above
PI3Kδ (p110δ/p85α), sequence (P27986 whole entry partner): as the sequence (P27986 whole entry partner) above
The kinase reaction was conducted in polystyrene 384-well matrix white plate from Thermo Fisher Scientific in a final volume of 25 μL. Inhibitors were first diluted serially in DMSO and added to the plate wells before the addition of other reaction components. The final concentration of DMSO in the assay was 0.5%. The PI3K assays were carried out at room temperature in 20 mM MOPS, pH 6.7, 10 mM MgCl2, 5 mM DTT and CHAPS 0.03%. […] ATP, 4 nM PI3Kδ. Reactions were incubated for 210 min and terminated by the addition of 40 μL SPA beads suspended in quench buffer: 150 mM potassium phosphate pH 8.0, 20% glycerol. 25 mM EDTA, 400 μM ATP. […] After the plate sealing, plates were shaken overnight at room temperature and centrifuged at 1800 rpm for 10 minutes, the radioactivity of the product was determined by scintillation counting on Topcount (Perkin-Elmer). […]

A short description of data set [2]: Free fraction in plasma, minipig. Type of data set: in vitro ADME. As for the experimental part:
as §3

Another data set is described as follows: IC90 value in the dermis. The procedure: Based on initial studies it is believed that topical administration of a strength of 0.01% may result in mean plasma concentration of approximately 1 nM at steady state.

T1 sequence (P42336 whole entry): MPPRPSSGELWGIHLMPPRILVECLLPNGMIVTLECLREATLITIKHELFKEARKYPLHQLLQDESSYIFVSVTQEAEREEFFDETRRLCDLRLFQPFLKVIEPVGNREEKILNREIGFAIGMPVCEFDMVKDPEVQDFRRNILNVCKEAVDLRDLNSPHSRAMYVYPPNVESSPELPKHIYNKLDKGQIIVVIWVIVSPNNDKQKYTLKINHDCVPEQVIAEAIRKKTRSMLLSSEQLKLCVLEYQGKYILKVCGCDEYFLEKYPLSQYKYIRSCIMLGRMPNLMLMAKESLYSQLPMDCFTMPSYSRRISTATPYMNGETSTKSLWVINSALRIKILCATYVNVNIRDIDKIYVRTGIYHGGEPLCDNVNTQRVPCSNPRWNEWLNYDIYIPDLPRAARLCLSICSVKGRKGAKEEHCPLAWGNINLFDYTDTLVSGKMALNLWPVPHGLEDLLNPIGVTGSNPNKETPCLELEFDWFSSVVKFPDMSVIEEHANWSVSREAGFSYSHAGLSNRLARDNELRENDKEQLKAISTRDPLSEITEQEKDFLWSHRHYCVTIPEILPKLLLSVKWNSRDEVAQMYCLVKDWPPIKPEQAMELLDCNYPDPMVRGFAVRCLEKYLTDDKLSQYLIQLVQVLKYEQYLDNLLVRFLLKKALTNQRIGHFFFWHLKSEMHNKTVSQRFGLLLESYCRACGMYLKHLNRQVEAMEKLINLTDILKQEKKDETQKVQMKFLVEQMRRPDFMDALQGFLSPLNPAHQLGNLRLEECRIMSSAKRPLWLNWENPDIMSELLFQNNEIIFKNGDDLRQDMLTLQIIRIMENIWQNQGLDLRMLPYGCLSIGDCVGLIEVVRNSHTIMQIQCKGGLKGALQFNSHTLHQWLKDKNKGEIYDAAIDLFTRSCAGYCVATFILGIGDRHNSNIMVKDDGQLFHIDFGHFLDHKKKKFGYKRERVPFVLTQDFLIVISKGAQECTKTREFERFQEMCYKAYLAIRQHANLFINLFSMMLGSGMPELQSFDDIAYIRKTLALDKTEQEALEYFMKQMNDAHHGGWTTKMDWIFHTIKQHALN
T1 sequence (P27986 whole entry partner): as the sequence (P27986 whole entry partner) above

`CCOc1c([C@H](C)n2nc(C)c3c(N)ncnc32)cc(Cl)c(F)c1[C@@H]1CNC(=O)C1` [Compound A HCl, (R)-4-(3-((S)-1-(4-Amino-3-methyl-1H-pyrazolo[3,4-d]pyrimidin-1-yl)ethyl)-5-chloro-2-ethoxy-6-fluorophenyl)pyrrolidin-2-one Hydrochloric Acid Salt]: the “selectivity for PI3Kδ over PI3Kα” value on PI3Kα was greater than 100 fold. Besides, on PI3Kδ, the “selectivity for PI3Kδ (in words)” value is recorded as “selective inhibitor for PI3Kδ”. Further, the “selectivity for PI3Kδ over PI3Kβ” value on PI3Kβ was greater than 100 fold. On PI3Kγ, the “selectivity for PI3Kδ over PI3Kγ” value is listed as greater than 100 fold.

Turning to `CCOc1c([C@H](C)n2nc(C)c3c(N)ncnc32)cc(Cl)c(F)c1[C@@H]1CNC(=O)C1` [Compound A, (R)-4-(3-((S)-1-(4-amino-3-methyl-1H-pyrazolo[3,4-d]pyrimidin-1-yl)ethyl)-5-chloro-2-ethoxy-6-fluorophenyl)pyrrolidin-2-one], the fraction unbound in data set [1] (homogenized skin, read-out: Mean free fraction in homogenized human skin) was found to be 0.33; in data set [1] (plasma, read-out: Mean free fraction in human plasma) it was 0.074; in data set [2] it was 0.031. This molecule also came in with a half-maximal inhibitory concentration (IC50) against PI3Kδ (p110δ/p85α) of less than 10 nM. Further, the 90% effect concentration (IC90) in “IC90 value in the dermis” was roughly 20 nM.
